Source: patent US20130045952A1, “ABA Receptor Agonists for Increased Plant Stress Resistance” (Van Andel Research Institute, priority 2011, published 2013)

How the values were obtained:
Format in all cases: biochemical
His6-PYR1 / biotin-PP2C = target: T1, His6-PYR1 / biotin-PP2C (Arabidopsis thaliana, UniProt O49686); experiment: AlphaScreen luminescence proximity assay, PYR1-PP2C interaction; settings: for Stimulation of the interaction between PYR1 and PP2C (binding signal): 100 nM His6-PYR1, 100 nM biotin-PP2C, 100 μM agonist, normalized against a pyrabactin control
T1 construct: made in house; host or cells: E. coli is stated for PYL1, PYL2 and the PP2Cs, not expressly for PYR1
T1 sequence (O49686 1-191): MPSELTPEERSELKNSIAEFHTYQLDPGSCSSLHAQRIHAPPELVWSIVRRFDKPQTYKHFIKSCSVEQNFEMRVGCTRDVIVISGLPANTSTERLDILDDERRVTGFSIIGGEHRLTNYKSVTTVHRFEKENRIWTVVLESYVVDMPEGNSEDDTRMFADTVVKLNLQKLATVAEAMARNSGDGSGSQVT
Procedure: (§1) Mutant proteins were expressed as H6GST-fusion proteins and purified by glutathione sepharose chromatography. Protein-protein interactions were determined by luminescence proximity AlphaScreen assay. Biotinylated PP2C proteins for the luminescence proximity assay were generated by in vivo biotinylation of avitag-PP2C fusion proteins. PP2C phosphatase activity was measured by phosphate release from a SnRK2.6 phosphoprotein.
(§2) Interactions between PYR/PYL and PP2Cs were assessed by luminescence-proximity AlphaScreen technology (Perkin Elmer). Briefly, biotinylated PP2Cs were attached to streptavidin-coated donor beads, and H6-tagged PYR/PYL receptors were attached to nickel-chelated acceptor beads. The donor and acceptor beads were brought into proximity by the interactions between PYR/PYLs and PP2Cs, which were measured with and without ligands. When excited by a laser beam of 680 nm, the donor beam emits singlet oxygen that activates thioxene derivatives in the acceptor beads, which releases photons of 520-620 nm as the binding signal. The experiments were conducted with 100 nM of PP2Cs and PYR/PYL proteins in the presence of 5 ug/ml donor and acceptor beads in a buffer of 50 mM MOPS, pH7.4, 50 mM NaF, […], and 0.1 mg/ml bovine serum albumin. The results were based on an average of three experiments with standard errors typically less than 10% of the measurements.
(§3) Values were determined in different experiments and normalized against a pyrabactin control. Blank spaces mean no experimental data is available. Key (photon counts (binding signal units) in Alphascreen luminescence proximity assay): “+++ is >75,000; ++ is 25,000−75,000; + is <25,000.

His6-PYL2 / biotin-PP2C = target: T2, His6-PYL2 / biotin-PP2C (Arabidopsis thaliana, UniProt O80992); experiment: AlphaScreen luminescence proximity assay, PYL2-PP2C interaction; settings: for Stimulation of the interaction between PYL2 and PP2C (binding signal): 100 nM His6-PYL2, 100 nM biotin-PP2C, 100 μM agonist, normalized against a pyrabactin control
T2 construct: PYL2 (residues 14-188), and HAB1 (residues 172-511) were prepared as recombinant proteins in E. coli; made in house; host or cells: E. coli
T2 sequence (O80992 14-188): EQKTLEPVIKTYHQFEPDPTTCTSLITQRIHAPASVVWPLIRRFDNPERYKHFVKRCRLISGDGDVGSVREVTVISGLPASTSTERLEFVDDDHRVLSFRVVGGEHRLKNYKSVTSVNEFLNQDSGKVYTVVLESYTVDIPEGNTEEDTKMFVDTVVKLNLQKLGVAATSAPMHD
Procedure: as §1, §2, §3

His6-PYR1 / biotin-ABI2 = target: T3, His6-PYR1 / biotin-ABI2 (Arabidopsis thaliana, UniProt O49686); experiment: AlphaScreen dose response, PYR1-ABI2 interaction; settings: 100 nM His6-PYR1, 100 nM biotin-PP2C, 0-100 μM agonist; from dose response curves
T3 construct: made in house; host or cells: E. coli (stated for the PP2Cs; not expressly for PYR1)
T3 sequence (O49686 1-191): T1 sequence (O49686 1-191)
T3 sequence (O04719 101-423 partner limits assumed): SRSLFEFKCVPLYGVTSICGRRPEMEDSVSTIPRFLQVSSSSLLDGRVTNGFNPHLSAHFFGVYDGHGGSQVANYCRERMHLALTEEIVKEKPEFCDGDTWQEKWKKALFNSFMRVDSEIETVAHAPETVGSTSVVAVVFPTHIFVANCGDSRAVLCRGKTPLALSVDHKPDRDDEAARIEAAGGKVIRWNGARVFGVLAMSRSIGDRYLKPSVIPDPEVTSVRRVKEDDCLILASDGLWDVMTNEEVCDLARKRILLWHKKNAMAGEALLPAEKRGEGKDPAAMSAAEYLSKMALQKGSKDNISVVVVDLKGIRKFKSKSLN
Procedure: as §2
(§4) The results shown in Table 5b were calculated from the dose response curves of the dependence of the interaction between 100 nM His6-PYR1 and 100 nM biotin-PP2C on the presence of 0-100 μM agonists determined by AlphaScreen luminescence proximity assay. Key (EC50 in μM): ++++=<5.0 μM; +++=5-10 μM; ++=10-20 μM; and +=>20-60 μM.

His6-PYR1 / biotin-HAB1 = target: T4, His6-PYR1 / biotin-HAB1 (Arabidopsis thaliana, UniProt O49686); experiment: AlphaScreen dose response, PYR1-HAB1 interaction; settings: 100 nM His6-PYR1, 100 nM biotin-PP2C, 0-100 μM agonist; from dose response curves
T4 construct: made in house; host or cells: E. coli (stated for the PP2Cs; not expressly for PYR1)
T4 sequence (O49686 1-191): T1 sequence (O49686 1-191)
T4 sequence (Q9CAJ0 172-511 partner limits assumed): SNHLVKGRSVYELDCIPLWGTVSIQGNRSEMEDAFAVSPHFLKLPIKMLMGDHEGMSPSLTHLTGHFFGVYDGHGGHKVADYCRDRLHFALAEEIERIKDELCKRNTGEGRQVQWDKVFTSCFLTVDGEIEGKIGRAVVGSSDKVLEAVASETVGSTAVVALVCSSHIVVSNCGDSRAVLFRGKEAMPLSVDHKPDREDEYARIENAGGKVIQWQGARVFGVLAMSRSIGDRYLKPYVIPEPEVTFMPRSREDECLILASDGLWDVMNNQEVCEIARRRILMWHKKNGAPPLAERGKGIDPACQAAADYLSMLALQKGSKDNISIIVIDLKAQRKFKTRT
Procedure: as §2, §4

ABI2 = target: T5, ABI2 (Arabidopsis thaliana, UniProt O04719+O49686); experiment: PP2C phosphatase activity assay, ABI2; settings: 200 nM PP2C; SnRK2.6 phosphopeptide substrate; None = 100
T5 construct: ABI1 (residues 117-434) and ABI2 (residues 101-423) were expressed as H6Sumo fusion proteins; H6Sumo (N); made in house; host or cells: E. coli BL21
T5 sequence (O04719 101-423 limits assumed): T3 sequence (O04719 101-423 partner limits assumed)
T5 sequence (O49686 1-191): T1 sequence (O49686 1-191)
Procedure: as §1
(§5) PP2Cs and PYR/PYL proteins were pre-incubated at the indicated concentrations in 50 mM imidazole, pH 7.2, 5 mM MgCl2, 0.1% β-mercaptoethanol and 0.5 mg/ml BSA for 30 min at room temperature. Reactions were started by addition of 100 μM of a phosphopeptide corresponding to amino acids 170-180 of SnRK2.6 (HSQPK^pSTVGTP). This peptide is phosphorylated at a single residue corresponding to Ser175 in SnRK2.6, whose phosphorylation is required for SnRK2.6 kinase activity^32. Phosphate release from ^pS175 from the phosphopeptide was determined by colorimetric assay (BioVision).

HAB1 = target: T6, HAB1 (Arabidopsis thaliana, UniProt O49686+Q9CAJ0); experiment: PP2C phosphatase activity assay, HAB1; settings: 200 nM PP2C; SnRK2.6 phosphopeptide substrate; None = 100
T6 construct: HAB1 (residues 172-511) were prepared as recombinant proteins in E. coli; H6GST or H6Sumo; made in house; host or cells: E. coli
T6 sequence (Q9CAJ0 172-511 limits assumed): T4 sequence (Q9CAJ0 172-511 partner limits assumed)
T6 sequence (O49686 1-191): T1 sequence (O49686 1-191)
Procedure: as §1, §5

[1] = purified proteins in vitro, HAB1, ABI1, ABI2

Stimulation of the interaction between PYR1 and PP2C (binding signal) (His6-PYR1 / biotin-PP2C)	Stimulation of the interaction between PYL2 and PP2C (binding signal) (His6-PYL2 / biotin-PP2C)	EC50 (His6-PYR1 / biotin-ABI2) [µM]	EC50 (His6-PYR1 / biotin-HAB1) [µM]	% Phosphatase Activity ABI2 (ABI2) [%]	% Phosphatase Activity HAB1 (HAB1) [%]	Structure (SMILES)	Promotion of PYR1 interaction with the three PP2Cs (His6-PYR1 / biotin-PP2C; [1])	Effect on ABA-dependent PYL2 interaction with all three PP2Cs (His6-PYL2 / biotin-PP2C; in the presence of ABA, concentration-dependent)	Promotion of PYL2 interaction with the three PP2Cs (His6-PYL2 / biotin-PP2C; [1])
+ (+ is <25,000)	+ (+ is <25,000)	20 to 60	20 to 60	3.2 ± 0.7	16.6 ± 2.0	O=C1Nc2ccc(S(=O)(=O)NCc3ccccn3)c3cccc1c23 [Compound 1]	–	–	–
+++ (+++ is >75,000)	+ (+ is <25,000)	20 to 60	5 to 10	3.8 ± 0.6	6.1 ± 1.9	CCOC(=O)CNS(=O)(=O)c1ccc2c3c(cccc13)C(=O)N2CC [Compound 2]	–	–	–
+++ (+++ is >75,000)	+ (+ is <25,000)	20 to 60	5 to 10	4.5 ± 0.5	8.8 ± 0.3	CCN1C(=O)c2cccc3c(S(=O)(=O)NC[C@@H]4CCCO4)ccc1c23 [Compound 11]	–	–	–

Structure (SMILES)	Stimulation of the interaction between PYR1 and PP2C (binding signal) (His6-PYR1 / biotin-PP2C)	Stimulation of the interaction between PYL2 and PP2C (binding signal) (His6-PYL2 / biotin-PP2C)	EC50 (His6-PYR1 / biotin-ABI2) [µM]	EC50 (His6-PYR1 / biotin-HAB1) [µM]	% Phosphatase Activity ABI2 (ABI2) [%]	% Phosphatase Activity HAB1 (HAB1) [%]	Promotion of PYR1 interaction with the three PP2Cs (His6-PYR1 / biotin-PP2C; [1])	Effect on ABA-dependent PYL2 interaction with all three PP2Cs (His6-PYL2 / biotin-PP2C; in the presence of ABA, concentration-dependent)	Promotion of PYL2 interaction with the three PP2Cs (His6-PYL2 / biotin-PP2C; [1])
O=S(=O)(NCc1ccccn1)c1ccc(Br)c2ccccc12 [Pyrabactin, pyrabactin]	–	–	5 to 10	< 5	1.5 ± 0.8	12.6 ± 0.3	strongly promoted	inhibited	did not promote
